Measurements taken from publication PMC11544713, “The Application of Untargeted Metabolomic Approaches for the Search of Common Bioavailable Metabolites in Human Plasma Samples from Lippia citriodora and Olea europaea Extracts” (Journal of Agricultural and Food Chemistry, 2024).

Assay: Acute intervention: nutrikinetics of plasma metabolites after ingestion of L. citriodora extract (untargeted HPLC-ESI-QTOF-MS)
Procedure: A total of 25 healthy individuals participated, with an average age of 27 ± 9 years and a mean body mass index (BMI) of 23 ± 3 kg/m^2. None of the participants were taking any medications or nutritional supplements nor did they have any chronic diseases or gastrointestinal issues. The sample size was established based on findings from previous bioavailability research.[14] All participants provided informed consent before participating in the study.
The intervention study was carried out at Miguel Hernández University. Following an overnight fast, the volunteers were categorized into the subsequent groups: a subgroup to evaluate the LC leaf extract (n = 8), another for the OE leaf extract (n = 8), and the placebo subgroup (n = 9). This was a double-blind study, in which sample collection and treatment were carried out uniformly across all three subgroups.
Water was provided ad libitum. Prior to the ingestion of the capsule, a nurse inserted a cannula into the ulnar vein of each volunteer’s nondominant arm, and blood samples were drawn into EDTA-coated tubes at baseline (t = 0). Blood samples were then collected at 0.5, 1, 2, 4, 6, 8, and 10 h after the consumption of the 500 mg capsule. Plasma was separated through centrifugation (10 min at 3000 rpm and 4 °C) and stored at −80 °C until further analysis.
Plasma samples were initially treated using a mixture of methanol and ethanol (50:50; v:v) to remove proteins, following previously reported protocols.[19] During the sample treatment, pooled quality controls (pooled-QC) were prepared by combining equal aliquots from each sample. These QC samples were processed by using the same protocols as the experimental biological samples.
A reversed-phase analytical C18 column (Agilent Zorbax Eclipse Plus, 1.8 μm, 4.6 × 150 mm^2) with a protective cartridge with the same packing was used. MS data were acquired in negative ionization mode, operating in full scan across a mass-to-charge ratio (m/z) range of 50–1700. The analytical method used was adapted from that described by Villegas-Aguilar et al.[19]
Metabolite nutrikinetics were studied using PKSolver, an add-in program for pharmacokinetic data analysis in Microsoft Excel. The time to reach the maximum concentration (observed Tmax) was calculated for each significant metabolite. As an untargeted metabolomic approach was used to detect the circulating metabolites, these were not quantified. Therefore, the maximum concentration (Cmax) and area under the curve (AUC) parameters were calculated in a relative way by using the deconvoluted chromatographic areas. […] Statistical differences were determined by unpaired t tests. All p values less than 0.05 were considered statistically significant.

[1] = 0.5 h after L. citriodora extract
[2] = 1 h after L. citriodora extract
[3] = 2 h after L. citriodora extract
[4] = 4 h after L. citriodora extract
[5] = 6 h after L. citriodora extract
[6] = 8 h after L. citriodora extract
[7] = 10 h after L. citriodora extract
[8] = human plasma, 500 mg capsule of L. citriodora (LC) extract, oral, mean ± SD

COc1cc(CCCO)ccc1OC1OC(CO)C(O)C(O)C1O (single isomer, unassigned; isomer 1) [dihydroconiferin isomer 1, dihydroconiferin]
mean chromatographic area in plasma, T0.5 [1]: 44 | mean chromatographic area in plasma, T1 [2]: 137 | mean chromatographic area in plasma, T2 [3]: 0 | mean chromatographic area in plasma, T4 [4]: 0 | mean chromatographic area in plasma, T6 [5]: 0 | mean chromatographic area in plasma, T8 [6]: 0 | mean chromatographic area in plasma, T10 [7]: 0 | AUC: area under the zero-moment curve [8]: 126 ± 28 relative chromatographic area/h | Cmax: relative maximum plasma level [8]: 139 ± 19 relative chromatographic area | observed Tmax: time required to reach Cmax [8]: 0.9 ± 0.2 h

C[C@@H]1O[C@@H](O[C@@H]2[C@@H](O)[C@H](OCCc3ccc(O)c(O)c3)O[C@H](CO)[C@H]2OC(=O)/C=C/c2ccc(O)c(O)c2)[C@H](O)[C@H](O)[C@H]1O [verbascoside]
detection in plasma samples (native form or phase II metabolites) (in vivo): has not been detected in plasma samples

COc1cc(/C=C/C(=O)O)ccc1O[C@@H]1O[C@H](C(=O)O)[C@@H](O)[C@H](O)[C@H]1O [ferulic acid 4-O-glucuronide]
mean chromatographic area in plasma, T0.5 [1]: 0 | mean chromatographic area in plasma, T1 [2]: 0 | mean chromatographic area in plasma, T2 [3]: 66 | mean chromatographic area in plasma, T4 [4]: 163 | mean chromatographic area in plasma, T6 [5]: 217 | mean chromatographic area in plasma, T8 [6]: 177 | mean chromatographic area in plasma, T10 [7]: 89 | AUC: area under the zero-moment curve [8]: 1304 ± 1975 relative chromatographic area/h | Cmax: relative maximum plasma level [8]: 282 ± 358 relative chromatographic area | observed Tmax: time required to reach Cmax [8]: 5 ± 2 h

O=C(O)C=Cc1ccc(OS(=O)(=O)O)c(O)c1 (single isomer, unassigned; isomer 2) [caffeic acid 4-sulfate isomer 2, caffeic acid 4-sulfate]
AUC: area under the zero-moment curve (human, in vivo, po, 500 mg): 1656 ± 1922 relative chromatographic area/h | Cmax: relative maximum plasma level (human, in vivo, po, 500 mg): 357 ± 268 relative chromatographic area | observed Tmax: time required to reach Cmax (human, in vivo, po, 500 mg): 3 ± 2 h | mean chromatographic area in plasma, T0.5 (in vivo): 0 | mean chromatographic area in plasma, T1 (in vivo): 67 | mean chromatographic area in plasma, T2 (in vivo): 277 | mean chromatographic area in plasma, T4 (in vivo): 266 | mean chromatographic area in plasma, T6 (in vivo): 189 | mean chromatographic area in plasma, T8 (in vivo): 129 | mean chromatographic area in plasma, T10 (in vivo): 22

pteroside Z [pteroside Z isomer 1]
AUC: area under the zero-moment curve (human, in vivo, po, 500 mg): 123 ± 53 relative chromatographic area/h | Cmax: relative maximum plasma level (human, in vivo, po, 500 mg): 120 ± 22 relative chromatographic area | observed Tmax: time required to reach Cmax (human, in vivo, po, 500 mg): 1.2 ± 0.4 h | mean chromatographic area in plasma, T0.5 (in vivo): 0 | mean chromatographic area in plasma, T1 (in vivo): 105 | mean chromatographic area in plasma, T2 (in vivo): 28 | mean chromatographic area in plasma, T4 (in vivo): 0 | mean chromatographic area in plasma, T6 (in vivo): 0 | mean chromatographic area in plasma, T8 (in vivo): 0 | mean chromatographic area in plasma, T10 (in vivo): 0

gardoside [gardoside isomer 1]
AUC: area under the zero-moment curve (human, in vivo, po, 500 mg): 608 ± 375 relative chromatographic area/h | Cmax: relative maximum plasma level (human, in vivo, po, 500 mg): 211 ± 72 relative chromatographic area | observed Tmax: time required to reach Cmax (human, in vivo, po, 500 mg): 2 ± 0 h | mean chromatographic area in plasma, T0.5 (in vivo): 0 | mean chromatographic area in plasma, T1 (in vivo): 85 | mean chromatographic area in plasma, T2 (in vivo): 211 | mean chromatographic area in plasma, T4 (in vivo): 86 | mean chromatographic area in plasma, T6 (in vivo): 27 | mean chromatographic area in plasma, T8 (in vivo): 0 | mean chromatographic area in plasma, T10 (in vivo): 0

CC(O)/C=C\C/C=C\C/C=C\CCCCCCCC(=O)O (centres unmarked) [17-hydroxylinolenic acid]
mean chromatographic area in plasma, T0.5 [1]: 81 | mean chromatographic area in plasma, T1 [2]: 428 | mean chromatographic area in plasma, T2 [3]: 445 | mean chromatographic area in plasma, T4 [4]: 184 | mean chromatographic area in plasma, T6 [5]: 31 | mean chromatographic area in plasma, T8 [6]: 12 | mean chromatographic area in plasma, T10 [7]: 20 | AUC: area under the zero-moment curve [8]: 1621 ± 1914 relative chromatographic area/h | Cmax: relative maximum plasma level [8]: 335 ± 306 relative chromatographic area | observed Tmax: time required to reach Cmax [8]: 6 ± 4 h

COc1cc(C(=O)O)ccc1OS(=O)(=O)O [vanillic acid 4-O-sulfate isomer 2, vanillic acid 4-O-sulfate]
mean chromatographic area in plasma, T0.5 [1]: 18 | mean chromatographic area in plasma, T1 [2]: 102 | mean chromatographic area in plasma, T2 [3]: 43 | mean chromatographic area in plasma, T4 [4]: 0 | mean chromatographic area in plasma, T6 [5]: 0 | mean chromatographic area in plasma, T8 [6]: 0 | mean chromatographic area in plasma, T10 [7]: 0 | AUC: area under the zero-moment curve [8]: 152 ± 118 relative chromatographic area/h | Cmax: relative maximum plasma level [8]: 119 ± 41 relative chromatographic area | observed Tmax: time required to reach Cmax [8]: 1.2 ± 0.4 h

COc1cc(CCCO)ccc1OC1OC(CO)C(O)C(O)C1O (single isomer, unassigned; isomer 2) [dihydroconiferin isomer 2, dihydroconiferin]
mean chromatographic area in plasma, T0.5 [1]: 34 | mean chromatographic area in plasma, T1 [2]: 136 | mean chromatographic area in plasma, T2 [3]: 83 | mean chromatographic area in plasma, T4 [4]: 0 | mean chromatographic area in plasma, T6 [5]: 0 | mean chromatographic area in plasma, T8 [6]: 0 | mean chromatographic area in plasma, T10 [7]: 0 | AUC: area under the zero-moment curve [8]: 244 ± 102 relative chromatographic area/h | Cmax: relative maximum plasma level [8]: 136 ± 28 relative chromatographic area | observed Tmax: time required to reach Cmax [8]: 1 ± 0 h

CC1=CC(=O)CC(C)(C)C1(O)/C=C/C(C)=C/COC1OC(CO)C(O)C(O)C1O (single isomer, unassigned; isomer 2) [abscisic alcohol 11-glucoside isomer 2, abscisic alcohol 11-glucoside]
mean chromatographic area in plasma, T0.5 [1]: 111 | mean chromatographic area in plasma, T1 [2]: 519 | mean chromatographic area in plasma, T2 [3]: 176 | mean chromatographic area in plasma, T4 [4]: 23 | mean chromatographic area in plasma, T6 [5]: 0 | mean chromatographic area in plasma, T8 [6]: 0 | mean chromatographic area in plasma, T10 [7]: 0 | AUC: area under the zero-moment curve [8]: 757 ± 174 relative chromatographic area/h | Cmax: relative maximum plasma level [8]: 562 ± 251 relative chromatographic area | observed Tmax: time required to reach Cmax [8]: 2 ± 1 h

CC(C)=C1CC2(C)C(=CC1=O)CCC(OC1OC(CO)C(O)C(O)C1O)C2C (centres unmarked) [isopetasoside]
mean chromatographic area in plasma, T0.5 [1]: 95 | mean chromatographic area in plasma, T1 [2]: 394 | mean chromatographic area in plasma, T2 [3]: 200 | mean chromatographic area in plasma, T4 [4]: 25 | mean chromatographic area in plasma, T6 [5]: 14 | mean chromatographic area in plasma, T8 [6]: 0 | mean chromatographic area in plasma, T10 [7]: 0 | AUC: area under the zero-moment curve [8]: 722 ± 166 relative chromatographic area/h | Cmax: relative maximum plasma level [8]: 455 ± 162 relative chromatographic area | observed Tmax: time required to reach Cmax [8]: 2 ± 1 h

CC1=CC(=O)CC(C)(C)C1(O)/C=C/C(C)=C/COC1OC(CO)C(O)C(O)C1O (single isomer, unassigned; isomer 3) [abscisic alcohol 11-glucoside isomer 3, abscisic alcohol 11-glucoside]
mean chromatographic area in plasma, T0.5 [1]: 56 | mean chromatographic area in plasma, T1 [2]: 258 | mean chromatographic area in plasma, T2 [3]: 13 | mean chromatographic area in plasma, T4 [4]: 13 | mean chromatographic area in plasma, T6 [5]: 0 | mean chromatographic area in plasma, T8 [6]: 0 | mean chromatographic area in plasma, T10 [7]: 0 | AUC: area under the zero-moment curve [8]: 267 ± 94 relative chromatographic area/h | Cmax: relative maximum plasma level [8]: 258 ± 95 relative chromatographic area | observed Tmax: time required to reach Cmax [8]: 1 ± 0 h

CC1=CC(=O)CC(C)(C)C1(O)/C=C/C(C)=C/COC1OC(CO)C(O)C(O)C1O (single isomer, unassigned; isomer 1) [abscisic alcohol 11-glucoside isomer 1, abscisic alcohol 11-glucoside]
mean chromatographic area in plasma, T0.5 [1]: 50 | mean chromatographic area in plasma, T1 [2]: 188 | mean chromatographic area in plasma, T2 [3]: 61 | mean chromatographic area in plasma, T4 [4]: 0 | mean chromatographic area in plasma, T6 [5]: 0 | mean chromatographic area in plasma, T8 [6]: 0 | mean chromatographic area in plasma, T10 [7]: 0 | AUC: area under the zero-moment curve [8]: 259 ± 134 relative chromatographic area/h | Cmax: relative maximum plasma level [8]: 202 ± 82 relative chromatographic area | observed Tmax: time required to reach Cmax [8]: 1.2 ± 0.4 h

C=C(C)[C@@H]1[C@H]2OC(=O)[C@@H]1[C@]1(O)C[C@H]3O[C@]34C(=O)O[C@H]2[C@]14C [picrotoxinin]
mean chromatographic area in plasma, T0.5 [1]: 32 | mean chromatographic area in plasma, T1 [2]: 102 | mean chromatographic area in plasma, T2 [3]: 91 | mean chromatographic area in plasma, T4 [4]: 0 | mean chromatographic area in plasma, T6 [5]: 0 | mean chromatographic area in plasma, T8 [6]: 0 | mean chromatographic area in plasma, T10 [7]: 0 | AUC: area under the zero-moment curve [8]: 231 ± 102 relative chromatographic area/h | Cmax: relative maximum plasma level [8]: 136 ± 44 relative chromatographic area | observed Tmax: time required to reach Cmax [8]: 1.3 ± 0.5 h
